PubChem BioAssay AID2060893 (Molecular Pharmacology Branch, DTP, NCI, 2025)
pIC50: −log10 of the molar value.

Tested on: K86415-001-R-J1-PDC complex spheroids, viability
Assay: Anticancer human tumor K86415-001-R-J1-PDC patient-derived lung adenocarcinoma cell line growth inhibition [RAS]
Conditions: for pIC50: curve of first compound; for viability, T/C: stronger effect = lower value
Outline: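 Tumour cells grown as complex spheroids with HUVEC endothelial cells and mesenchymal stem cells, treated with RAS pathway inhibitor combinations. Each agent spans half-log steps from near clinical Cmax, or 10 microM where Cmax is unknown.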

[1] = second compound 0.000949 µM, first compound 0.0316 µM
[2] = second compound 0.000949 µM, first compound 0.1 µM
[3] = second compound 0.003 µM, first compound 0.0316 µM
[4] = second compound 0.003 µM, first compound 0.1 µM
[5] = second compound 0.00949 µM, first compound 0.0316 µM
[6] = second compound 0.00949 µM, first compound 0.1 µM
[7] = second compound 0.03 µM, first compound 0.0316 µM
[8] = second compound 0.03 µM, first compound 0.1 µM
[9] = second compound 0.0949 µM, first compound 0.0316 µM
[10] = second compound 0.0949 µM, first compound 0.1 µM
[11] = second compound 0.3 µM, first compound 0.0316 µM
[12] = second compound 0.3 µM, first compound 0.1 µM
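Further: spheroids exposed to agents for seven days before readout.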

For `CC(C)n1nc(-c2ccc3oc(N)nc3c2)c2c(N)ncnc21` + CCn1c(-c2cc(N3CCN(C)CC3)cnc2C(C)OC)c2c3cc(ccc31)-c1csc(n1)CC(NC(=O)C1CC1C)C(=O)N1CCCC(N1)C(=O)OCC(C)(C)C2, the pIC50 (second compound 0.000949 µM) was > 9.50, the pIC50 (second compound 0.003 µM) was > 9.50 and the pIC50 (second compound 0.00949 µM) was > 9.50. For the same compound, the pIC50 (second compound 0.03 µM) was > 9.50, the pIC50 (second compound 0.0949 µM) was > 9.50 and the pIC50 (second compound 0.3 µM) was > 9.50. The viability, T/C (second compound 0.000949 µM, first compound 0.000316 µM) was 46.4%, the viability, T/C (second compound 0.000949 µM, first compound 0.001 µM) was 46.7% and the viability, T/C (second compound 0.000949 µM, first compound 0.00316 µM) was 39.5%. For the same compound, the viability, T/C (second compound 0.000949 µM, first compound 0.01 µM) was 43.9%, the viability, T/C [1] was 35.4% and the viability, T/C [2] was 20.4%. For the same compound, the viability, T/C (second compound 0.003 µM, first compound 0.000316 µM) was 23.1%, the viability, T/C (second compound 0.003 µM, first compound 0.001 µM) was 17.4% and the viability, T/C (second compound 0.003 µM, first compound 0.00316 µM) was 18.4%. It also gave a viability, T/C (second compound 0.003 µM, first compound 0.01 µM) of 16.3%, a viability, T/C [3] of 23.8% and a viability, T/C [4] of 7.47%. The viability, T/C (second compound 0.00949 µM, first compound 0.000316 µM) was 11.5%, the viability, T/C (second compound 0.00949 µM, first compound 0.001 µM) was 9.33% and the viability, T/C (second compound 0.00949 µM, first compound 0.00316 µM) was 9.17%. It also gave a viability, T/C (second compound 0.00949 µM, first compound 0.01 µM) of 8.21%, a viability, T/C [5] of 3.17% and a viability, T/C [6] of 2.45%. For the same compound, the viability, T/C (second compound 0.03 µM, first compound 0.000316 µM) was 5.52%, the viability, T/C (second compound 0.03 µM, first compound 0.001 µM) was 4.5% and the viability, T/C (second compound 0.03 µM, first compound 0.00316 µM) was 3.7%. The viability, T/C (second compound 0.03 µM, first compound 0.01 µM) was 2.13%, the viability, T/C [7] was 0.97% and the viability, T/C [8] was 1.14%. It also gave a viability, T/C (second compound 0.0949 µM, first compound 0.000316 µM) of 3.75%, a viability, T/C (second compound 0.0949 µM, first compound 0.001 µM) of 3.4% and a viability, T/C (second compound 0.0949 µM, first compound 0.00316 µM) of 2.07%. It also gave a viability, T/C (second compound 0.0949 µM, first compound 0.01 µM) of 1.07%, a viability, T/C [9] of 0.49% and a viability, T/C [10] of 0.77%. For the same compound, the viability, T/C (second compound 0.3 µM, first compound 0.000316 µM) was 2.48%, the viability, T/C (second compound 0.3 µM, first compound 0.001 µM) was 2.57% and the viability, T/C (second compound 0.3 µM, first compound 0.00316 µM) was 2.13%. It also gave a viability, T/C (second compound 0.3 µM, first compound 0.01 µM) of 0.8%, a viability, T/C [11] of 0.57% and a viability, T/C [12] of 0.8%.

For `NC1c2ccccc2OC12CCN(c1cnc3c(N4CCCc5ncccc54)n[nH]c3n1)CC2` (centres undefined) + CCn1c(-c2cc(N3CCN(C)CC3)cnc2C(C)OC)c2c3cc(ccc31)-c1csc(n1)CC(NC(=O)C1CC1C)C(=O)N1CCCC(N1)C(=O)OCC(C)(C)C2, the pIC50 (second compound 0.000949 µM) was > 7.50, the pIC50 (second compound 0.003 µM) was > 7.50 and the pIC50 (second compound 0.00949 µM) was > 7.50. The pIC50 (second compound 0.03 µM) was > 7.50, the pIC50 (second compound 0.0949 µM) was > 7.50 and the pIC50 (second compound 0.3 µM) was > 7.50. The viability, T/C [1] was 17.9%, the viability, T/C [2] was 13.2% and the viability, T/C (second compound 0.000949 µM, first compound 0.316 µM) was 7.58%. For the same compound, the viability, T/C (second compound 0.000949 µM, first compound 1 µM) was 9.76%, the viability, T/C (second compound 0.000949 µM, first compound 3.16 µM) was 9.06% and the viability, T/C (second compound 0.000949 µM, first compound 10 µM) was 7.7%. The viability, T/C [3] was 9.27%, the viability, T/C [4] was 8.67% and the viability, T/C (second compound 0.003 µM, first compound 0.316 µM) was 6.53%. The viability, T/C (second compound 0.003 µM, first compound 1 µM) was 6.35%, the viability, T/C (second compound 0.003 µM, first compound 3.16 µM) was 4.86% and the viability, T/C (second compound 0.003 µM, first compound 10 µM) was 5.29%. For the same compound, the viability, T/C [5] was 7.91%, the viability, T/C [6] was 5.02% and the viability, T/C (second compound 0.00949 µM, first compound 0.316 µM) was 5.89%. The viability, T/C (second compound 0.00949 µM, first compound 1 µM) was 4.63%, the viability, T/C (second compound 0.00949 µM, first compound 3.16 µM) was 5.75% and the viability, T/C (second compound 0.00949 µM, first compound 10 µM) was 4.91%. For the same compound, the viability, T/C [7] was 5.17%, the viability, T/C [8] was 4.43% and the viability, T/C (second compound 0.03 µM, first compound 0.316 µM) was 5.11%. For the same compound, the viability, T/C (second compound 0.03 µM, first compound 1 µM) was 5.46%, the viability, T/C (second compound 0.03 µM, first compound 3.16 µM) was 3.67% and the viability, T/C (second compound 0.03 µM, first compound 10 µM) was 5.21%. For the same compound, the viability, T/C [9] was 3.52%, the viability, T/C [10] was 4.51% and the viability, T/C (second compound 0.0949 µM, first compound 0.316 µM) was 4.52%. For the same compound, the viability, T/C (second compound 0.0949 µM, first compound 1 µM) was 3.8%, the viability, T/C (second compound 0.0949 µM, first compound 3.16 µM) was 3.7% and the viability, T/C (second compound 0.0949 µM, first compound 10 µM) was 4.75%. It also gave a viability, T/C [11] of 4.69%, a viability, T/C [12] of 4.26% and a viability, T/C (second compound 0.3 µM, first compound 0.316 µM) of 4.59%. It also gave a viability, T/C (second compound 0.3 µM, first compound 1 µM) of 3.96%, a viability, T/C (second compound 0.3 µM, first compound 3.16 µM) of 4.65% and a viability, T/C (second compound 0.3 µM, first compound 10 µM) of 4.77%.
